Results on one compound are retold here after ChEMBL document CHEMBL5053536, “Discovery of Quinazoline-2,4(1H,3H)-dione Derivatives Containing 3-Substituted Piperizines as Potent PARP-1/2 Inhibitors─Design, Synthesis, In Vivo Antitumor Activity, and X-ray Crystal Structure Analysis” (J Med Chem, 2021).

In general, AUC(0-t) refers to exposure summed from dosing to a finite time, without extrapolation to infinity. Lower therefore signals low exposure.

A short description of the series: AUC(0 to t) in Sprague-Dawley rat at 20 mg/kg, po measured upto 24 hrs by LC-MS/MS analysis. The series is classed as ADME, organism-based. More on the design: time < 24 hrs, dose 20 mg/kg, route po. The conditions noted are these: in vivo.

As for `CC[C@@H]1CN(C(=O)c2cc(Cn3c(=O)[nH]c(=O)c4ccccc43)ccc2F)CCN1CC`, the exposure AUC(0-t) at 24 h was 330 ng·h/mL.
